Assay: xn = mol fraction of the nth substance listed
Details: 100 kPa, Liquid; for mass density: Vibrating tube method; for viscosity: Cone and plate viscometry

CCCCCC[n+]1ccn(C)c1.O=S(=O)([N-]S(=O)(=O)C(F)(F)F)C(F)(F)F + CCCCCCCC[P+](CC)(CC)CC.O=[N+]([O-])c1cn[n-]c1
x2 = 0
Details	mass density [kg/m3]
283.15 K	1385.6
288.15 K	1381
293.15 K	1376.5
295.15 K	1374.6
298.15 K	1371.9
303.15 K	1367.3
308.15 K	1362.8
313.15 K	1358.3
318.15 K	1353.7
323.15 K	1349.2
328.15 K	1344.7
333.15 K	1340.3
338.15 K	1335.8
343.15 K	1331.4
348.15 K	1326.9
353.15 K	1322.5

CCCCCCCCCC[P+](CC)(CC)CC.O=[N+]([O-])c1cn[n-]c1 [decyltriethylphosphonium 4-nitropyrazolide] + CC[P+](CC)(CC)COCCOC.O=S(=O)([N-]S(=O)(=O)C(F)(F)F)C(F)(F)F
viscosity [mPa·s]
Details	278.15 K	283.15 K	288.15 K	293.15 K	298.15 K	303.15 K	308.15 K	313.15 K	318.15 K	323.15 K
x1 = 0.1	103	79	62	49	–	–	–	–	–	–
x1 = 0.25	160	120	91	72	57	–	–	–	–	–
x1 = 0.499	334	239	174	131	101	79	64	52	–	–
x1 = 0.75	716	486	337	241	178	135	104	82	66	55
x1 = 0.9	1198	788	531	370	265	195	149	115	91	73

CCCCCCCCCCCCCC[P+](CCCCCC)(CCCCCC)CCCCCC.O=[N+]([O-])c1cn[n-]c1 [trihexyl(tetradecyl)phosphonium 4-nitropyrazolide] + CCCCCC[n+]1ccn(C)c1.O=S(=O)([N-]S(=O)(=O)C(F)(F)F)C(F)(F)F
viscosity [mPa·s]
Details	278.15 K	283.15 K	288.15 K	293.15 K	298.15 K	303.15 K	308.15 K	313.15 K	318.15 K	323.15 K
x1 = 0.099	338	241	175	132	101	80	65	52	–	–
x1 = 0.2	528	367	261	191	144	111	88	70	57	–
x1 = 0.3	831	565	393	282	208	158	122	97	78	64
x1 = 0.501	1594	1055	715	499	357	264	199	153	120	96
x1 = 0.695	2474	1600	1061	726	512	371	276	209	162	128
x1 = 0.797	2704	1750	1158	788	554	400	296	222	171	134
x1 = 0.898	3071	1971	1297	880	614	441	325	244	187	146

CC[P+](CC)(CC)COCCOC.O=S(=O)([N-]S(=O)(=O)C(F)(F)F)C(F)(F)F + CCCCCCC[P+](CC)(CC)CC.O=[N+]([O-])c1cn[n-]c1
x2 = 0
Details	viscosity [mPa·s]
278.15 K	84
283.15 K	65
288.15 K	51

CC[P+](CC)(CC)COCCOC.O=S(=O)([N-]S(=O)(=O)C(F)(F)F)C(F)(F)F + CCCCCCCCCC[P+](CC)(CC)CC.O=[N+]([O-])c1cn[n-]c1
x2 = 0
Details	viscosity [mPa·s]
278.15 K	84
283.15 K	65
288.15 K	51

CCCCCCn1cc[n+](C)c1C.O=[N+]([O-])c1cn[n-]c1 [1-hexyl-2,3-dimethylimidazolium 4-nitropyrazolide] + CCCCCCCC[P+](CC)(CC)CC.O=S(=O)([N-]S(=O)(=O)C(F)(F)F)C(F)(F)F
viscosity [mPa·s]
Details	278.15 K	283.15 K	288.15 K	293.15 K	298.15 K	303.15 K	308.15 K	313.15 K	318.15 K	323.15 K
x1 = 0.101	401	284	204	151	115	90	72	57	–	–
x1 = 0.299	620	421	293	211	156	120	93	74	60	–
x1 = 0.499	992	636	423	292	209	154	118	91	72	59
x1 = 0.701	2252	1345	836	543	369	259	188	140	107	84
x1 = 0.899	6554	3416	1886	1108	689	450	307	216	157	119

CCCCCCn1cc[n+](C)c1.O=[N+]([O-])c1cn[n-]c1 [1-hexyl-3-methylimidazolium 4-nitropyrazolide] + CCCCCCCC[P+](CC)(CC)CC.O=S(=O)([N-]S(=O)(=O)C(F)(F)F)C(F)(F)F
viscosity [mPa·s]
Details	278.15 K	283.15 K	288.15 K	293.15 K	298.15 K	303.15 K	308.15 K	313.15 K	318.15 K	323.15 K
x1 = 0.1	402	284	205	152	116	90	72	58	–	–
x1 = 0.299	470	325	230	168	127	98	77	62	51	–
x1 = 0.499	639	428	294	209	154	116	90	71	57	–
x1 = 0.701	1045	660	432	295	209	154	116	90	71	57
x1 = 0.9	2181	1262	765	488	326	227	164	122	93	74

CCCCCCn1cc[n+](C)c1C.O=S(=O)([N-]S(=O)(=O)C(F)(F)F)C(F)(F)F + CCCCCCCCCCCCCC[P+](CCCCCC)(CCCCCC)CCCCCC.O=S(=O)([N-]S(=O)(=O)C(F)(F)F)C(F)(F)F
viscosity [mPa·s]
Details	278.15 K	283.15 K	288.15 K	293.15 K	298.15 K	303.15 K	308.15 K	313.15 K	318.15 K	323.15 K
x2 = 0.2	707	483	336	242	179	136	106	84	68	55
x2 = 0.4	932	634	442	317	234	177	137	107	86	71
x2 = 0.596	1000	683	477	342	252	190	146	115	92	75
x2 = 0.749	1015	698	490	353	261	196	151	119	95	77
x2 = 0.898	1130	786	555	400	297	224	173	135	108	80

CCCC[n+]1cccn1C.O=S(=O)([N-]S(=O)(=O)C(F)(F)F)C(F)(F)F [1-butyl-2-methylpyrazolium bis(trifluoromethylsulfonyl)imide] + CCCCCCSC(N(C)C)=[N+](C)C.O=S(=O)([N-]S(=O)(=O)C(F)(F)F)C(F)(F)F
mass density [kg/m3]
Details	x2 = 0.251	x2 = 0.502	x2 = 0.748
283.15 K	1431.2	1400.4	1375.8
288.15 K	1426.6	1395.7	1371.4
293.15 K	1421.9	1391.4	1366.9
295.15 K	1420.1	1389.9	1365.1
298.15 K	1417.3	1387.4	1362.4
303.15 K	1412.7	1382	1357.9
308.15 K	1408.1	1377.6	1353.5
313.15 K	1403.5	1373.2	1349
318.15 K	1398.9	1368.8	1344.6
323.15 K	1394.3	1364.7	1340.2
328.15 K	1389.7	1360.4	1335.8
333.15 K	1385.2	1356	1331.4
338.15 K	1380.6	1351.7	1327
343.15 K	1376.1	1347.3	1322.6
348.15 K	1371.6	1342.8	1318.3
353.15 K	1367.1	1338.4	1313.9

CCCCCCCCCCCCCC[P+](CCCCCC)(CCCCCC)CCCCCC.O=S(=O)([N-]S(=O)(=O)C(F)(F)F)C(F)(F)F + CCCCCC[n+]1ccn(C)c1.O=S(=O)([N-]S(=O)(=O)C(F)(F)F)C(F)(F)F
viscosity [mPa·s]
Details	278.15 K	283.15 K	288.15 K	293.15 K	298.15 K	303.15 K	308.15 K	313.15 K	318.15 K	323.15 K
x1 = 0.2	390	280	205	153	118	92	74	60	–	–
x1 = 0.398	652	459	329	242	183	141	111	89	72	60
x1 = 0.596	873	611	434	316	236	180	140	111	90	73
x1 = 0.748	1019	706	500	362	270	204	158	124	100	81
x1 = 0.903	1114	774	547	396	293	221	171	134	107	86

CCCCCCC[P+](CC)(CC)CC.O=[N+]([O-])c1cn[n-]c1 [triethylheptylphosphonium 4-nitropyrazolide] + CC[P+](CC)(CC)COCCOC.O=S(=O)([N-]S(=O)(=O)C(F)(F)F)C(F)(F)F
viscosity [mPa·s]
Details	278.15 K	283.15 K	288.15 K	293.15 K	298.15 K	303.15 K	308.15 K	313.15 K	318.15 K	323.15 K
x1 = 0.101	103	80	62	50	–	–	–	–	–	–
x1 = 0.248	135	101	78	61	50	–	–	–	–	–
x1 = 0.5	234	170	126	96	75	59	–	–	–	–
x1 = 0.75	474	328	231	168	126	97	76	61	50	–
x1 = 0.901	761	510	350	249	182	137	105	84	66	54

Source: the NIST ThermoML archive (doi:10.1021/acs.jced.7b00221)
